Results published in US20250122155A1, “NOVEL INDOLE DERIVATIVE, PHARMACEUTICAL COMPOSITION COMPRISING SAME, AND USE THEREOF” (MITOIMMUNE THERAPEUTICS INC., priority 2021, published 2025).
Read-outs that look alike come from different tables or passages of the source.

What was measured:
H9C2 cells = assay: Protective effect on heart cells against t-BHP (LDH release); format: cell-based; settings: H9C2, t-BHP 400 μM, 2 hours, read-out: EC50 (μM), Cell Protection Effect against t-BHP in Heart Cells
Procedure: In order to identify the protective effect with regard to heart cells, H9C2 cells were divided into 96-well plates by 1.5×10^4, and cultured for 24 hours. The respective wells were treated with compounds of the examples 3× serial diluted to final concentrations of 30, 10, 3, 1, 0.3, 0.1, 0.03 and 0.01 μM, then incubated for 15 to 20 minutes. After treating with t-BHP with a final concentration of 400 μM, incubation was performed for 2 hours. To confirm the protective effect of each compound, a Cytotoxicity LDH assay kit [Dojindo; CK12] was used to measure the degree of extracellular secretion of LDH. After 2-hour treatment of the cells with t-BHP was completed, 100 μL each of the supernatant in which the cells were placed was collected and moved to a new 96-well plate. 100 μL/well of the assay buffer included in the kit (same amount as the sample) was added, followed by wrapping with foil and reacting for 30 minutes at room temperature. Observing the change of color in the sample, 50 μL/well of stop solution was added, then an iD3 spectrometer was used to measure absorbance at 490 nm and calculate the EC50 values. The EC50 of the compounds of the examples is preferably no more than 1.0 μM, and more preferably no more than 0.3 μM.

[1] = Plasma and brain drug concentration after oral administration (HPLC-MS/MS); format: in vivo
Procedure: […] parameters can be represented as maximum concentration in plasma (Cmax), time taken until maximum concentration in plasma (Tmax), area under the plasma concentration-time curve (AUClast and AUCinf), and half-life (t1/2), and the like.
The compound of Example 2 was orally administered to ICR mice at a dose of 10 mg/kg, and drug concentration in mouse plasma was measured using HPLC-MS/MS spectroscopy at 0.5, 1, 2, 4, 8 and 24 hours. The mouse brains were removed at 2 or 24 hours, and drug concentration in the brain was measured using HPLC-MS/MS spectroscopy. The area under the plasma concentration v. time curve (AUCinf) was measured to be […], and at 2 hours after administration drug concentration in plasma was 398 ng/mL and brain drug concentration was measured at 683 ng/mL. […] Further, at 24 hours after administration, for Example 2, drug concentration in plasma was measured to be 5.6 ng/mL and drug concentration in the brain was measured at 11.4 ng/mL. With the brain-plasma drug concentration ratio at 2.04, drug exposure in the brain was still high.
The Comparative Example compound was orally administered to ICR mice at a dose of 10 mg/kg, and drug concentration in mouse plasma was measured using HPLC-MS/MS spectroscopy at 0.5, 1, 2, 4, 8 and 24 hours. The mouse brains were removed at 2 or 24 hours, and drug concentration in the brain was measured using HPLC-MS/MS spectroscopy.

[2] = ICR mouse, oral 10 mg/kg, 2 hr, 10 mg/kg
[3] = ICR mouse, oral 10 mg/kg, 24 hr, 10 mg/kg

SMILES | EC50 (H9C2 cells) [µM] | further results
COCCOCc1cc(NC2CCC(F)(F)CC2)c2[nH]c(-c3ccccc3)cc2c1 [Example 14, N-(4,4-difluorocyclohexyl)-5-(2-methoxyethoxymethyl)2-phenyl-1H-indol-7-amine] | ≤ 0.3 | –
COCCOCc1cc(NC2CCOCC2)c2[nH]c(-c3ccc(C#CC(C)(C)O)cc3)cc2c1 [Example 59, 4-(4-(5-((2-methoxyethoxy)methyl)-7-((tetrahydro-2H-pyran-4-yl)amino)-1H-indol-2-yl)phenyl)-2-methylbut3-yn-2-ol] | 0.3 to 1 | –
COCCNc1cc(COCCOC)cc2cc(-c3ccccc3)[nH]c12 [Example 46, 5-(2-methoxyethoxymethyl)-N-(2-methoxyethyl)-2-phenyl-1H-indol-7-amine] | ≤ 0.3 | –
COCCOCc1cc(NCC(C)(C)C)c2[nH]c(-c3ccccc3)cc2c1 [Example 11, N-(2,2-dimethylpropyl)-5-(2-methoxyethoxymethyl)-2-phenyl-1H-indol-7-amine] | ≤ 0.3 | –
COCCOCc1cc(N2CCOCC2)c2[nH]c(-c3ccccc3)cc2c1 [Example 5, 4-[5-(2-methoxyethoxymethyl)-2-phenyl-1H-indol-7-yl]morpholine] | > 1 | –
COCCOCc1cc(NC2CCOCC2)c2[nH]cc(-c3ccccc3)c2c1 [Example 52, 5-(2-methoxyethoxymethyl)-3-phenyl-N-tetrahydropyran-4-yl-1H-indol-7-amine] | ≤ 0.3 | –
COCCOCc1cc(NC2CCOC2)c2[nH]c(-c3ccccc3)cc2c1 (stereo not shown) [Example 6, 5-(2-methoxyethoxymethyl)-2-phenyl-N-tetrahydrofuran-3-yl-1H-indol-7-amine] | ≤ 0.3 | –
COCCOCc1cc(NC2CCOCC2)c2[nH]c(-c3cccc(F)c3)cc2c1 [Example 48, 2-(3-fluorophenyl)-5-(2-methoxyethoxymethyl)-N-tetrahydropyran-4-yl-1H-indol-7-amine] | ≤ 0.3 | –
COCCOCc1cc(N2CCCCC2)c2[nH]c(-c3ccccc3)cc2c1 [Example 68, 5-((2-methoxyethoxy)methyl)-2-phenyl-7-(piperidin-1-yl)-1H-indole] | > 1 | –
CCOCCOCc1cc(NC2CCOCC2)c2[nH]c(-c3ccccc3)cc2c1 [Example 35, 5-(2-ethoxyethoxymethyl)-2-phenyl-N-tetrahydropyran-4-yl-1H-indol-7-amine] | ≤ 0.3 | –
COCCOCc1cc(NC2CCOCC2)c2[nH]c(-c3ccc(P(C)(C)=O)cc3)cc2c1 [Example 57] | > 1 | –
COCCOCc1cc(NCC2CC2)c2[nH]c(-c3ccccc3)cc2c1 [Example 21] | ≤ 0.3 | –
COCCOCCCc1cc(NC2CCOCC2)c2[nH]c(-c3ccccc3)cc2c1 [Example 65, 5-(3-(2-methoxyethoxy)propyl)-2-phenyl-N-(tetrahydro-2H-pyran-4-yl)-1H-indol-7-amine] | ≤ 0.3 | –
COCCOCc1cc(NC2CCCC2)c2[nH]c(-c3ccc(P(C)(C)=O)cc3)cc2c1 [Example 56, (4-(7-(cyclopentylamino)-5-((2-methoxyethoxy)methyl)-1H-indol-2-yl)phenyl)dimethylphosphine oxide] | ≤ 0.3 | –
COCCOCc1cc(NC2CCOCC2)c2[nH]c(-c3ccc(Br)cc3)cc2c1 [Example 55, 2-(4-bromophenyl)-5-((2-methoxyethoxy)methyl)-N-(tetrahydro-2H-pyran-4-yl)-1H-indol-7-amine] | ≤ 0.3 | –
COCCOCc1cc(NC2CCCCC2)c2[nH]c(-c3ccccc3)cc2c1 [Example 13, N-cyclohexyl-5-(2-methoxyethoxymethyl)-2-phenyl-1H-indol-7-amine] | ≤ 0.3 | –
COCCOCc1cc(NC2CCCC2)c2[nH]cc(-c3ccccc3)c2c1 [Example 51, N-cyclopentyl-5-(2-methoxyethoxymethyl)-3-phenyl-1H-indol-7-amine] | ≤ 0.3 | –
COCCOCc1cc(NC2CCCC2)c2[nH]c(-c3ccc(Br)cc3)cc2c1 [Example 54, 2-(4-bromophenyl)-N-cyclopentyl-5-((2-methoxyethoxy)methyl)-1H-indol-7-amine] | ≤ 0.3 | –
COCCOCCc1cc(NC2CCOCC2)c2[nH]c(-c3ccccc3)cc2c1 [Example 67, 5-(2-(2-methoxyethoxy)ethyl)-2-phenyl-N-(tetrahydro-2H-pyran-4-yl)-1H-indole-7-amine] | ≤ 0.3 | –
COCCOCc1cc(N(C2CCCC2)C2CCCC2)c2[nH]c(-c3ccccc3)cc2c1 [Example 3, N,N-dicyclopentyl-5-(2-methoxyethoxymethyl)-2-phenyl-1H-indol-7-amine] | ≤ 0.3 | –
CCC(CC)CNc1cc(COCCOC)cc2cc(-c3ccccc3)[nH]c12 [Example 18, N-(2-ethylbutyl)-5-(2-methoxyethoxymethyl)-2-phenyl-1H-indol-7-amine] | ≤ 0.3 | –
CCCC(C)Nc1cc(COCCOC)cc2cc(-c3ccccc3)[nH]c12 (stereo not shown) [Example 22, 5-(2-methoxyethoxymethyl)-N-(1-methylbutyl)-2-phenyl-1H-indol-7-amine] | ≤ 0.3 | –
OCc1cc(NC2CCCC2)c2[nH]c(-c3ccccc3)cc2c1 [Comparative Example, reference compound] | – | drug concentration in brain [1, 2]: 95 ng/mL; drug concentration in plasma [1, 2]: 1122 ng/mL; drug concentration in brain [1, 3]: no drug concentration was measured; drug concentration in plasma [1, 3]: no drug concentration was measured; AUC(0-inf) ([1]; ICR mouse, oral 10 mg/kg, plasma, read-out: area under the plasma concentration v. time curve (AUCinf)): 5460 ng·h/mL; concentration at 2 h ([1]; ICR, mouse, brain, po, 10 mg/kg, 2 hr, read-out: drug concentration in brain): 95 ng/mL; concentration at 24 h ([1]; ICR, mouse, brain, po, 10 mg/kg, 24 hr, read-out: drug concentration in brain): 0 ng/mL; concentration at 0.5 h ([1]; ICR, mouse, plasma, po, 10 mg/kg, 0.5 hr): 1640 ng/mL; concentration at 1 h ([1]; ICR, mouse, plasma, po, 10 mg/kg, 1 hr): 2110 ng/mL; concentration at 2 h ([1]; ICR, mouse, plasma, po, 10 mg/kg, 2 hr, read-out: drug concentration in plasma): 1120 ng/mL; concentration at 4 h ([1]; ICR, mouse, plasma, po, 10 mg/kg, 4 hr): 389 ng/mL; concentration at 8 h ([1]; ICR, mouse, plasma, po, 10 mg/kg, 8 hr): 50.8 ng/mL; concentration at 24 h ([1]; ICR, mouse, plasma, po, 10 mg/kg, 24 hr, read-out: drug concentration in plasma): 0 ng/mL; AUC(0-t) ([1]; ICR, mouse, plasma, po, 10 mg/kg, plasma, read-out: area under the plasma concentration v. time curve (AUClast)): 5360 ng·h/mL; AUC(0-t) ([1]; ICR, mouse, plasma, po, 10 mg/kg, read-out: AUClast, plasma): 5360 ng·h/mL; Kp at 2 h ([1]; brain/plasma, ICR mouse, oral 10 mg/kg, 2 hr, read-out: brain-plasma drug concentration ratio (B/P ratio)): 0.08
CCOC(=O)N1CCC(Nc2cc(COCCOC)cc3cc(-c4ccccc4)[nH]c23)CC1 [Example 44, Ethyl 4-[[5-(2-methoxyethoxymethyl)-2-phenyl-1H-indol-7-yl]amino]piperidine-1-carboxylate] | ≤ 0.3 | –
CCCNc1cc(COCCOC)cc2cc(-c3ccccc3)[nH]c12 [Example 16, 5-(2-methoxyethoxymethyl)-2-phenyl-N-propyl-1H-indol-7-amine] | ≤ 0.3 | –
